Measured values published in patent US7964613B2 (Asahi Kasei Pharma Corporation, priority 2007, dated 2011).

Tests used:
TNF-α production = test: Inhibitory effect on TNF-α production in mice (LPS); assay type: in vivo, BALB/c mice; conditions: Mus musculus, 1.5 h; oral administration of 30 mg/kg, LPS 5 μg i.p. 60 minutes later, plasma after 90 minutes; read-out: TNF-α production suppressing action
Method: BALB/c mice (Japan CRJ, famale) were used as experimental animals. Each test compound was dissolved in distilled water at a concentration suitable for the examination. The weight of each mouse was measured, a test compound solution was orally administered in a volume corresponding to 10 ml/kg, and only distilled water was administered to the control group. Each group consisted of five to seven animals. LPS was dissolved in physiological saline, and intraperitoneally administered to each mouse in an amount of 5 μg. The test compound was administered first, and LPS (lipopolysaccharide, Sigma) was administered 60 minutes later. After 90 minutes, blood was collected from the abdominal large vein in the presence of heparin, and plasma was obtained by centrifugation. TNF-α content in the plasma was measured by using the ELISA method.

human ROCK1 = target: T1, human ROCK1 (Homo sapiens, UniProt Q13464); test: Measurement of Rho kinase inhibitory activity (ELISA of MBS phosphorylation); assay type: biochemical; conditions: human ROCK1, MBS substrate, 100 μM ATP, 30° C. for 10 minutes
T1 construct: His tag (N); host or cells: insect cells (Sf9)
T1 sequence (Q13464 1-727): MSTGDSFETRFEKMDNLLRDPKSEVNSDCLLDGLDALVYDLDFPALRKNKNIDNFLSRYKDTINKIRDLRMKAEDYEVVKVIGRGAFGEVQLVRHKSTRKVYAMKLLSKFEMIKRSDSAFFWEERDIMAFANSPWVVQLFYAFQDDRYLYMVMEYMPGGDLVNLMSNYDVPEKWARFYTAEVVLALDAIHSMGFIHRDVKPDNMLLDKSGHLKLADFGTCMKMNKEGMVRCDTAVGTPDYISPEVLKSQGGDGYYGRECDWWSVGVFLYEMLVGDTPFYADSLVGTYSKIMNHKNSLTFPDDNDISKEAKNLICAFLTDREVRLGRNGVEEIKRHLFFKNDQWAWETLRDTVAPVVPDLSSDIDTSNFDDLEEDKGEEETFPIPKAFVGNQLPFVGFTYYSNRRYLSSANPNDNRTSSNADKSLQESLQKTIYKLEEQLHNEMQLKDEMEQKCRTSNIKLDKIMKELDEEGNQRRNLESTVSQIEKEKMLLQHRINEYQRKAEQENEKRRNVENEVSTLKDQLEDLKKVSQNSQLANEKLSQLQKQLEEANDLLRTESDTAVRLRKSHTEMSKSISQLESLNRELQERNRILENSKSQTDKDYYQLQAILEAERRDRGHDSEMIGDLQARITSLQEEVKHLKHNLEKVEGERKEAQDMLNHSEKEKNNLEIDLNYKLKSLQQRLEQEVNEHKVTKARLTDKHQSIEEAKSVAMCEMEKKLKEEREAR
Procedure, shortened: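 N-terminal His-tagged human ROCK1 (1-727, Sf9-expressed) phosphorylated plate-immobilized MBS in 20 mM HEPES pH 7.5, 100 μM ATP, 30° C for 10 minutes. Phospho-MBS detected by antibody ELISA (A490); IC50 is concentration giving 50% inhibition.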

[1] = system: mouse neuroblastoma cell strain N1E-115; test: Inhibitory effect on neurite retraction (LPA-induced); assay type: cell-based; conditions: mouse/rat NG108-15; 10 μM compound, 1 μM LPA, N1E-115 cells
Method: An experiment for Inhibitory effect on neurite retraction using mouse neuroblastoma cell strain N1E-115 was performed according to the method of Hirose, M. et al. (J. Cell. Biol., 141, pp. 1625-1636 (1998)). This method utilizes the fact that LPA (lysophosphatidic acid), which is a endogenous substance, induces neurite retraction, and is a method of evaluating how much a drug can inhibit the LPA-induced neurite retraction and thereby evaluating potency of inhibition of neuronal degeneration and potency of neuronal regeneration of the drug. N1E-115 cells cultured in a DMEM solution containing 20% heat-inactivated fetal bovine serum were plated on a 6-well plate (IWAKI) at a density of 40,000 cells/well, and cultured overnight at 37° C. in the same culture medium in a 5% CO2 incubator. In order to induce differentiation of the N1E 115 cells into nerve cells, the culture medium was changed to the serum-free DMEM solution, and the cells were cultured for 1 or 2 days at 37° C. in the 5% CO2 incubator until most of the cells extended the neurites. On the examination day, each compound of the present invention was added at a final concentration of 10 μM, incubation was performed for 30 minutes, then LPA (Sigma) was added at a final concentration of 1 μM, and incubation was further performed for 10 minutes. To the control, the same volume of phosphate buffered saline as the solvent was added. After completion of the incubation, glutaraldehyde was added at a final concentration of 5% to fix the cells. […] The inhibition rate (%) of each drug was calculated by using the following equation. Inhibition rate(%)=100−(RCP obtained with drug to be evaluated−RCP of control)/(RCP obtained with LPA−RCP of control)×100

## CN[C@H]1CCN(S(=O)(=O)c2cccc3cncc(C)c23)C1 [Example 8-3]
TNF-α production
  inhibition in vivo at 30 mg/kg: ≥ 50%
Human ROCK1
  IC50: < 1 µM
[1]
  inhibition at 10 µM: ≥ 50%

## N[C@H]1CCN(S(=O)(=O)c2cccc3cncc(Cl)c23)C1 [Example 19-1, (S)-3-Amino-1-(4-chloro-5-isoquinolinesulfonyl)pyrrolidine]
TNF-α production
  inhibition in vivo at 30 mg/kg: ≥ 50%
Human ROCK1
  IC50: < 1 µM
[1]
  inhibition at 10 µM: ≥ 50%

## CN[C@H]1CCN(S(=O)(=O)c2cccc3cncc(Cl)c23)C1 [Example 19-3, (S)-1-(4-Chloro-5-isoquinolinesulfonyl)-3-(methylamino)pyrrolidine]
TNF-α production
  inhibition in vivo at 30 mg/kg: ≥ 50%
Human ROCK1
  IC50: < 1 µM
[1]
  inhibition at 10 µM: ≥ 50%

## CN[C@H]1CCN(S(=O)(=O)c2cccc3c(O)ncc(Cl)c23)C1 [Example 36-1, (S)-1-(1-Hydroxy-4-chloro-5-isoquinolinesulfonyl)-3-(methylamino)pyrrolidine]
TNF-α production
  inhibition in vivo at 30 mg/kg: ≥ 50%
Human ROCK1
  IC50: < 1 µM
[1]
  inhibition at 10 µM: ≥ 50%
